Results reported in patent US20100273748A1, “ANTIMICROBIAL THERAPY” (priority 2006, published 2010).

What was measured:
Assay type in all cases: cell-based, human
cathelicidin [1] = test: qPCR of cathelicidin mRNA in cultured keratinocytes; details: for increase of cathelicidin mRNA: 24 hours
CYP24A1 = test: qPCR of CYP24A1 mRNA in cultured keratinocytes; details: 1,25D3 10^−8M, 24 hours
Method: Cell culture and stimuli. Human keratinocytes were grown in serum-free EpiLife® cell culture media (Cascade Biologics; Portland, Oreg.) containing 0.06 mM Ca2+ and 1× EpiLife® defined growth supplement (EDGS) at 37° C. under standard tissue culture conditions. Stock cultures were maintained for up to five passages in this media with the addition of 50 U/mL penicillin and 50 μg/mL streptomycin. HaCaT keratinocytes were cultured in DMEM (Sigma, St. Louis, Mo.) with 10% FCS. Cells at 50-70% confluence were stimulated in fresh medium after preincubation with 1,25(OH)2 vitamin D3 (1,25D3; 0.1-100 nM, 4-24 h; Sigma). Alternatively, NHEK were stimulated in the presence of 1,25D3 (0.1-100 nM). […]
Real-time RT-PCR (qPCR). […] Expression of cathelicidin and GAPDH was analysed by real-time RT-PCR. […] Fold induction relative to the vehicle treated control in in vitro experiments was calculated using the comparative Ct method, where ΔΔCt is ΔCt(stimulant)-ΔCt(vehicle), ΔCt is Ct(gene)-Ct(GAPDH) and Ct is the cycle at which an arbitrary detection threshold is crossed. For quantification of transcript abundance in tissue samples target gene expression was normalized to GAPDH and compared to non-treated or non-injured skin.

CD14 protein = test: Western blot of keratinocyte extracts
Method: Western Blot. […] After centrifugation, equal amounts of protein were mixed with loading buffer (0.25M Tris HCL, 10% SDS, 10% glycerol, 5% β-mercaptoethanol) and loaded onto a 10% Tris-Tricine gel (GeneMate, Kaysville, Utah). After separation, proteins were blotted onto a PVDF membrane (Millipore, Billerica, Mass.) and blocked in 5% milk (BioRad) in TBS 0.1% Tween20 for 1 h at RT. After washings in TBS 0.1% Tween20, membranes were stained with a rabbit polyclonal anti-CD14 (Abcam, Cambridge, Mass.) or an anti TLR2 antibody (eBioscience), washed again in TBS 0.1% Tween20 and reprobed with a HRP-coupled goat anti-rabbit antibody (DakoCytomation, Glostrup, Denmark). Stained protein was visualized using the Western Lightning® system (Perkin Elmer, Boston, Mass.).

cathelicidin [2] = test: Cathelicidin protein immunostaining in NHEK; details: butyrate (2 mM) and 1,25D3 (10^−8M), 24 hours
Method: Panel a: NHEKs were stimulated with 1,25D3 (10^−9-10^−7 M) in the presence of the HDAC inhibitor butyrate (BUT; 2 mM) for 24 hours. mRNA abundance was determined by real-time qPCR for cathelicidin and glyceraldehyde-3-phosphate dehydrogenase and normalized to vehicle-treated controls. […] Data shown are means (7SD) of the results from a single stimulation experiment performed in triplicates and are representative of at least three independent experiments (**P<0.01; ***P<0.001; two-way analysis of variance). Panel b: The HDAC inhibitor TSA (200 ng ml^−1) induces cathelicidin in the presence of 1,25D3 (10^−8M). Expression of cathelicidin is dependent on a functional VDR, as pretreatment with the VDR antagonist ZK159222 (10^−7 M) inhibits induction of cathelicidin with BUT (2 mM) in the presence of 1,25D3 (10^−8 M) after 24 hours. Expression of cathelicidin was determined by qPCR as described in Panel a. (*P<0.05; Student's t-test). […] Cells were stained with a polyclonal anti-LL-37 antibody (followed by an FITC-coupled secondary antibody) and nuclei detected with 4,6-diamidino-2-phenylindole (Bar=30 μM). […] NHEKs were stimulated with 1,25D3 (10^−8M) in combination with the HDAC inhibitor BUT (2 mM) for 24 hours, cells harvested and cell lysates co-incubated with S. aureus DmprF, and bacterial growth monitored over time to determine antimicrobial activity. […]

Q: Which results are given for `C=C1/C(=C\C=C2/CCC[C@]3(C)[C@@H]([C@H](C)CCCC(C)(C)O)CC[C@@H]23)C[C@@H](O)C[C@@H]1O` [1,25D3, 1,25(OH)2 vitamin D3]?
A: increase of cathelicidin expression over cells without 1,25D3 (cathelicidin [1]; 1,25D3 0.1 nM, then Malp-2, dose dependent): up to 60 fold; increase of cathelicidin mRNA (cathelicidin [1]; 10^−7 M 1,25D3 in the absence of butyrate): about 75 fold; increase of cathelicidin mRNA (cathelicidin [1]; 10^−7 M 1,25D3 in the presence of butyrate (2 mM)): over 200 fold; CYP24A1 transcript abundance (CYP24A1): strongly upregulated; CD14 protein expression (Western blot) (CD14 protein; 1,25D3 100 nM, monolayer keratinocyte extracts): increases expression; CD14 protein expression (Western blot) (CD14 protein; 1,25D3 10^−8M and butyrate 2 mM, 24 hours): increase in CD14 protein expression; cathelicidin peptide expression (immunostaining) (cathelicidin [2]): increase in cathelicidin peptide expression
